# In US20260284066A1, “TYK2 INHIBITORS AND COMPOSITIONS AND METHODS THEREOF” (LYNK PHARMACEUTICALS CO. LTD., priority 2023, published 2026):
# Experiments:
# TYK2-JH2 domain = target: T1, TYK2-JH2 domain (Homo sapiens, UniProt P29597); test: Binding activity test for TYK2 JH2 domain (Tb-antibody/tracer FRET); details: for JAK1/TYK2 selectivity: ratio of JAK1 JH2 to TYK2 JH2 binding IC50; for IC50: read-out: TYK2 JH2 Binding IC50
# T1 construct: JAK1-JH2 domain or TYK2-JH2 domain enzyme
# JAK1-JH2 domain = target: T2, JAK1-JH2 domain (Homo sapiens, UniProt P23458); test: Binding activity test for JAK1 JH2 domain (Tb-antibody/tracer FRET); details: read-out: JAK1 JH2 Binding IC50
# T2 construct: JAK1-JH2 domain or TYK2-JH2 domain enzyme
# Protocol: Binding Activity test for JH2 domain of JAK and TYK2
# 75 nL DMSO for high control and low control.
# For low control, add 5 μL/well assay buffer. […] After enzyme system prepared, add 5 μL of Tb-antibody solution into each wells of assay plate. […] After Tb-antibody added, also add 5 μL of tracer into the assay plate. […] Incubate for 60 mins at 25° C. firstly and then continue to incubate the plate at 4° C. overnight. Read by envision in FRET mode. The Luminescence value was recorded by a multi-label reader Envision (PerkinElmer). Inhibition Rate was calculated relative to vehicle (DMSO) treated control wells using following formula:
# wherein • RLU_compound=the relative light unit of cells treated with test compounds • RLU_low control=the relative light unit of medium with DMSO only • RLU_high control=the relative light unit of cells treated with DMSO only
# [1] = tested on: Ba/F3-FL-TYK2-P760L cells; test: Anti-proliferative assay in Ba/F3-FL-TYK2-P760L cells (Cell-Titer Glo); type: cell-based
# Protocol: These engineered Ba/F3-FL-TYK2-P760L cells were used to monitor JAK inhibitory activities of the compounds in the cellular. […] Cells were seeded at 2000/well of white flat bottom 96-well plates. The well containing medium only was used as background control. […] The test compounds were dissolved in DMSO to a stock concentration of 20 mM. […] The final DMSO concentration was 0.1%. […] The viability was measured by cellular ATP determination using the Cell-Titer Glo luciferase reagent (Promega). The Luminescence value was recorded by a multi-label reader Envision (PerkinElmer). Inhibition Rate was calculated relative to vehicle (DMSO) treated control wells using following formula:
# wherein • RLU_compound=the relative light unit of cells treated with test compounds • RLU_blank=the relative light unit of medium with DMSO only • RLU_control=the relative light unit of cells treated with DMSO only
# [2] = Microsomal metabolic stability assay; type: in vitro ADME, human; details: for microsomal CLint at 1 µM / half-life at 1 µM: human, liver microsomes, pH 7.4, human liver microsomes 0.5 mg/mL; for microsomal CLint at 1 µM: read-out: Human LM Clint; for half-life at 1 µM: read-out: Human LM T½
# Protocol: Microsomal Metabolic Stability Assay
# Microsomes were pre-incubated with test compound or control compounds for 5 min at 37° C. in 100 mM potassium phosphate buffer, pH 7.4, 1.0 mM EDTA. The reaction was initiated by addition of 15 μL of the NADPH regenerating system to 30 μL of each incubation mixture per time point. The final incubation condition was composed of 0.5 mg/mL microsomal protein, 1 μM test article/positive control, 2 mM NADPH. The 0-minute samples were prepared by addition of a 30 μL aliquot of each incubation mixture to 135 μL quench reagent to precipitate proteins. And then a 15 μL aliquot of the NADPH regenerating system was added. At 5, 15, 30 and 45 minutes, the reaction will be stopped by the addition of cold acetonitrile solution containing internal standard. The samples taken at all time points were centrifuged at 5000×g for 15 minutes. 50 μL of supernatant are taken into 96-well assay plates pre-added with 50 μL ultrapure water, and then analyzed by LC/MS/MS.
# Concentrations of test articles, control compounds in the samples were determined by using LC/MS/MS method. Plotting of the chromatograms and peak area integrations are carried out by Analyst (AB Sciex).
# In the determination of the in vitro elimination constant (ke) of the control compounds, the analyte/internal standard peak area ratios will be converted to percentage remaining (% Remaining) with the following equation:
# The CLint of microsomes was calculated using the formula: CLint (mic)=0.693/T1/2/mg microsome protein per mL. The slope was measured by the natural logarithm of the percentage of the residual compound and time, T1/2 was calculated according to the following formula.
# pSTAT1 = test: Phosphorylation inhibition of STAT in human whole blood (IFN-alpha stimulated, flow cytometry); type: cell-based; details: T-cell, CD3+ T cells, read-out: pSTAT1 inhibition in hWB (IC50)
# Protocol: Phosphorylation Inhibition of STAT in Human Whole Blood Testing: The inhibitory potential of test articles in human whole blood assay was evaluated by the method of flow cytometry. IFN-alpha will activate JAK1 and TYK2 kinase in T cells by binding to IFN receptors, and then lead to phosphorylation of STAT1 and STAT2. The phosphorylated STAT1 enter nuclear and promote transcription and expression of IFN-gamma. To evaluate the efficacy of TYK2i in T cells, freshly collected human whole blood will be stimulated with certain unit of human IFN-alpha (Universal Type I IFN (1MU), R&D, 11200-2) for 20 mins in incubator. After stimulation, fix cells with PhosflowTM Fix Buffer I (BD, 557870), and then collect fixed cells by centrifugation (500 g, 8 min). Wash cells once with pre-cooled PBS, and then permeabilize cells with cold Perm Buffer III buffer (BD, 558050) for 45 mins on ice. Collect cells by centrifugation (600 g, 8 min) and washed twice with cold PBS. Stain cells with anti-human CD3(FITC Mouse Anti-Human CD3, BD, 555332) and anti-pSTAT1_Y701 (Alexa Fluor 647 Mouse Anti-Stat1 ([…]), BD, 612597) antibodies. Detect pSTAT1 by flow cytometry (CytoFlex S) and analyze data with FlowJo and GraphPad Prism 8 software. IC50 values of test articles were determined using 4-parameter logistic equation.
# Kinetic solubility = type: physicochemical; details: aqueous buffer, 100 mM pH 7.4 phosphate buffer, 1% DMSO, room temperature, read-out: Kinetics Solubility_PBS7.4
# Protocol: Aliquots of 8 μL of reference and test compound stock solutions (10 mM/5 mM) are added into 792 μL of 100 mM pH 7.4 phosphate buffer. The final DMSO concentration is 1%. Sample tubes are shaken for 2 hours at 1000 rpm at room temperature. Samples are centrifuged at 12000 rpm for 10 min to precipitate un-dissolved particles. And transfer the supernatants to a new tube or plate. Add 5 μL of samples (no diluted, 10 times diluted and 100 times diluted) and standard curve samples to 95 μL of ACN containing IS for LC-MS/MS analysis.
# TYK2 pathway = test: IFN-γ release in NK92 cells stimulated by IL-12 (ELISA); type: cell-based; details: Homo sapiens, IL-12 2.5 ng/mL
# From the text: IFN-γ Release in NK92 Cells Stimulated by IL-12
# Purpose: To evaluate the inhibition activity of TYK2 inhibitors in NK92 cells on TYK2 pathway through ELISA method.
# [3] = human liver microsomes 0.5 mg/mL, 1 μM
# T2 sequence (P23458 583-855 limits assumed): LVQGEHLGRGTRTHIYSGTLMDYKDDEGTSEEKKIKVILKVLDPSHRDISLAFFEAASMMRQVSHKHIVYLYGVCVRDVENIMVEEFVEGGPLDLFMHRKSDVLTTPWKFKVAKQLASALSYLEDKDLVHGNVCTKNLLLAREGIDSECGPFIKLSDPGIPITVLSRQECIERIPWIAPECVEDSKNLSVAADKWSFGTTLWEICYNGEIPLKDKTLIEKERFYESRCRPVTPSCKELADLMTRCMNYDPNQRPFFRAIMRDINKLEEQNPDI
# T1 sequence (P29597 589-875 limits assumed): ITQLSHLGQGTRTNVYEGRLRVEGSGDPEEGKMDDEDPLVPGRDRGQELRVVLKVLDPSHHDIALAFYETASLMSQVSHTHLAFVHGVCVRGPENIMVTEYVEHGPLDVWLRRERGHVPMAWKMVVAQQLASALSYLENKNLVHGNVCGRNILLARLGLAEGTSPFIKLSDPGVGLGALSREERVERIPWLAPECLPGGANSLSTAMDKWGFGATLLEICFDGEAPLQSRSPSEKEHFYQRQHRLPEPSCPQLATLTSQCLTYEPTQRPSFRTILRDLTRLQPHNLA
compound,measurement,setting,value
"[2H]C([2H])([2H])NC(=O)c1cnc(NC(=O)C2CC2)cc1Nc1ncn2ncc(C(C)C(F)(F)F)c2c1OC (single isomer, unassigned) [Example 5A, (R*)-6-(Cyclopropanecarboxamido)-4((4-methoxy-3-(1,1,1-trifluoropropan-2-yl)pyrazolo[1,5-c]pyrimidin-5-yl)amino)-N-(methyl-d3)nicotinamide]",JAK1/TYK2 selectivity,TYK2-JH2 domain,>197.55
same,IC50,TYK2-JH2 domain,1.51 nM
same,IC50,JAK1-JH2 domain,> 298 nM
same,IC50,[1],> 5000 nM
same,microsomal CLint at 1 µM,[2],57.5 µL/min/mg
same,half-life at 1 µM,[2],24.1 min
"[2H]C([2H])([2H])NC(=O)c1cnc(NC(=O)C2CC2)cc1Nc1ccc2cnn(CC(C)(F)F)c2c1OC [Example 2, 6-(Cyclopropanecarboxamido)-4-((1-(2,2-difluoropropyl)-7-methoxy-1H-indazol-6-yl)amino)-N-(methyl-d3)nicotinamide]",JAK1/TYK2 selectivity,TYK2-JH2 domain,78.97
same,IC50,TYK2-JH2 domain,0.239 nM
same,IC50,JAK1-JH2 domain,18.9 nM
same,IC50,pSTAT1,327 nM
same,microsomal CLint at 1 µM,[2],53.8 µL/min/mg
same,half-life at 1 µM,[2],25.8 min
"[2H]C([2H])([2H])NC(=O)c1cnc(NC(=O)[C@@H]2C[C@@H]2F)cc1Nc1ncc2cnn(CC(F)(F)F)c2c1OC [Example 9, 6-((1S,2S)-2-fluorocyclopropane-1-carboxamido)-4-((7-methoxy-1-(2,2,2-trifluoroethyl)-1H-pyrazolo[4,3-c]pyridin-6-yl)amino)-N-(methyl-d3)nicotinamide]",JAK1/TYK2 selectivity,TYK2-JH2 domain,166.08
same,IC50,TYK2-JH2 domain,0.212 nM
same,IC50,JAK1-JH2 domain,35.2 nM
same,IC50,pSTAT1,274 nM
same,microsomal CLint at 1 µM,[2],5.42 µL/min/mg
same,half-life at 1 µM,[2],256 min
same,solubility kinetic at 2 h,Kinetic solubility,38.2 µM
"[2H]C([2H])([2H])NC(=O)c1cnc(NC(=O)C2CC2)cc1Nc1ccc2ccn(CC(C)(F)F)c2c1OC [Example 17, 6-(Cyclopropanecarboxamido)-4-((1-(2,2-difluoropropyl)-7-methoxy-1H-indol-6-yl)amino)-N-(methyl-d3)nicotinamide]",JAK1/TYK2 selectivity,TYK2-JH2 domain,121.60
same,IC50,TYK2-JH2 domain,0.341 nM
same,IC50,JAK1-JH2 domain,41.5 nM
same,IC50,TYK2 pathway,21.7 nM
same,solubility kinetic at 2 h,Kinetic solubility,11.1 µM
"[2H]C([2H])([2H])NC(=O)c1cnc(NC(=O)C2CC2)cc1Nc1cc(F)c2ccn(CC)c2c1OC [Example 16, 6-(Cyclopropanecarboxamido)-4-((1-ethyl-4-fluoro-7-methoxy-1H-indol-6-yl)amino)-N-(methyl-d3)nicotinamide]",JAK1/TYK2 selectivity,TYK2-JH2 domain,70.10
same,IC50,TYK2-JH2 domain,0.083 nM
same,IC50,JAK1-JH2 domain,5.82 nM
same,IC50,pSTAT1,220 nM
"[2H]C([2H])([2H])NC(=O)c1cnc(NC(=O)C2CC2)cc1Nc1ncc2cnn(C(C)C(F)(F)F)c2c1OC (stereo not drawn) [Example 3, 6-(Cyclopropanecarboxamido)-4-((7-methoxy-1-(1,1,1-trifluoropropan-2-yl)-1H-pyrazolo[4,3-c]pyridin-6-yl)amino)-N-(methyl-d3)nicotinamide]",JAK1/TYK2 selectivity,TYK2-JH2 domain,177.55
same,IC50,TYK2-JH2 domain,0.682 nM
same,IC50,JAK1-JH2 domain,121 nM
same,IC50,[1],164 nM
same,microsomal CLint at 1 µM,[2],5.8 µL/min/mg
same,half-life at 1 µM,[2],239 min
"CNC(=O)c1cnc(NC(=O)C2CC2)cc1Nc1ncn2ncc(C#N)c2c1OC [Example 20, 4-((3-Cyano-4-methoxypyrazolo[1,5-c]pyrimidin-5-yl)amino)-6-(cyclopropanecarboxamido)-N-methylnicotinamide]",JAK1/TYK2 selectivity,TYK2-JH2 domain,63.62
same,IC50,TYK2-JH2 domain,0.304 nM
same,IC50,JAK1-JH2 domain,19.3 nM
same,IC50,pSTAT1,167 nM
same,microsomal CLint at 1 µM,[2],39.2 µL/min/mg
same,half-life at 1 µM,[2],35.4 min
"[2H]C([2H])([2H])NC(=O)c1cnc(NC(=O)C2CC2)cc1Nc1ccc2ccn(C([2H])([2H])[2H])c2c1OC [Example 15, 6-(Cyclopropanecarboxamido)-4-((7-methoxy-1-(methyl-d3)-1H-indol-6-yl)amino)-N-(methyl-d3)nicotinamide]",JAK1/TYK2 selectivity,TYK2-JH2 domain,15.64
same,IC50,TYK2-JH2 domain,0.094 nM
same,IC50,JAK1-JH2 domain,1.47 nM
same,IC50,pSTAT1,205 nM
"[2H]C([2H])([2H])NC(=O)c1cnc(NC(=O)C2CC2)cc1Nc1ncn2ncc(C(C)C(F)(F)F)c2c1OC (stereo not drawn) [Example 5, 6-(Cyclopropanecarboxamido)-4-((4-methoxy-3-(1,1,1-trifluoropropan-2-yl)pyrazolo[1,5-c]pyrimidin-5-yl)amino)-N-(methyl-d3)nicotinamide]",JAK1/TYK2 selectivity,TYK2-JH2 domain,590.59
same,IC50,TYK2-JH2 domain,0.271 nM
same,IC50,JAK1-JH2 domain,160 nM
same,IC50,[1],52.4 nM
same,Human LM Clint,[2]; [3],50.06 µL/min/mg
same,half-life at 1 µM,[2],27.7 min
"[2H]C([2H])([2H])NC(=O)c1cnc(NC(=O)C2CC2)cc1Nc1ncn2ncc(C(C)C(F)(F)F)c2c1OC (single isomer, unassigned) [Example 5B, (S*)-6-(Cyclopropanecarboxamido)-4-((4-methoxy-3-(1,1,1-trifluoropropan-2-yl)pyrazolo[1,5-c]pyrimidin-5-yl)amino)-N-(methyl-d3)nicotinamide]",JAK1/TYK2 selectivity,TYK2-JH2 domain,716.05
same,IC50,TYK2-JH2 domain,0.197 nM
same,IC50,JAK1-JH2 domain,141 nM
same,IC50,[1],62.3 nM
same,Human LM Clint,[2]; [3],47.61 µL/min/mg
same,Human LM T½,[2]; [3],29.11 min
"[2H]C([2H])([2H])NC(=O)c1cnc(NC(=O)C2CC2)cc1Nc1ccn2ncc(Br)c2c1OC [Example 29, 4-((3-Bromo-4-methoxypyrazolo[1,5-a]pyridin-5-yl)amino)-6-(cyclopropanecarboxamido)-N-(methyl-d3)nicotinamide]",JAK1/TYK2 selectivity,TYK2-JH2 domain,42.0
same,IC50,TYK2-JH2 domain,0.188 nM
same,IC50,JAK1-JH2 domain,7.87 nM
same,IC50,TYK2 pathway,32.1 nM
